Results reported in the supplement of paper PMC11451515.

Test system: P12-Ichikawa
Test: cell viability relative to DMSO control; higher = less cytotoxic
Conditions: 48 h
Summary of the method: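 Library compounds in DMSO were pin-dosed into 1536-well plates (5 μl) holding NOMO1 or SEM (500 cells/well) or P12-Ichikawa (1000 cells/well) leukemia cells, across an 11-point threefold series of 47 μM to 0.79 nM. Each cell line had been adapted for at least four passages in each medium. CellTiter-Glo One luminescence was read after 48 h at 37°C. Viability is the per-plate percentage relative to DMSO wells, with cell-free wells as background.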

[1] = HPLM + 10% dialyzed FBS, 0.000781 µM
[2] = HPLM + 10% dialyzed FBS, 0.00234 µM
[3] = HPLM + 10% dialyzed FBS, 0.00702 µM
[4] = HPLM + 10% dialyzed FBS, 0.0211 µM
[5] = HPLM + 10% dialyzed FBS, 0.0632 µM
[6] = HPLM + 10% dialyzed FBS, 0.19 µM
[7] = HPLM + 10% dialyzed FBS, 0.569 µM
[8] = HPLM + 10% dialyzed FBS, 1.71 µM
[9] = HPLM + 10% dialyzed FBS, 5.12 µM
[10] = HPLM + 10% dialyzed FBS, 15.4 µM
[11] = HPLM + 10% dialyzed FBS, 46.1 µM
[12] = RPMI 5 mM glucose + 10% FBS, 0.000781 µM
[13] = RPMI 5 mM glucose + 10% FBS, 0.00234 µM
[14] = RPMI 5 mM glucose + 10% FBS, 0.00702 µM
[15] = RPMI 5 mM glucose + 10% FBS, 0.0211 µM
[16] = RPMI 5 mM glucose + 10% FBS, 0.0632 µM
[17] = RPMI 5 mM glucose + 10% FBS, 0.19 µM
[18] = RPMI 5 mM glucose + 10% FBS, 0.569 µM
[19] = RPMI 5 mM glucose + 10% FBS, 1.71 µM
[20] = RPMI 5 mM glucose + 10% FBS, 5.12 µM
[21] = RPMI 5 mM glucose + 10% FBS, 15.4 µM
[22] = RPMI 5 mM glucose + 10% FBS, 46.1 µM
[23] = RPMI 5 mM glucose + 10% dialyzed FBS, 0.000781 µM
[24] = RPMI 5 mM glucose + 10% dialyzed FBS, 0.00234 µM
[25] = RPMI 5 mM glucose + 10% dialyzed FBS, 0.00702 µM
[26] = RPMI 5 mM glucose + 10% dialyzed FBS, 0.0211 µM
[27] = RPMI 5 mM glucose + 10% dialyzed FBS, 0.0632 µM
[28] = RPMI 5 mM glucose + 10% dialyzed FBS, 0.19 µM
[29] = RPMI 5 mM glucose + 10% dialyzed FBS, 0.569 µM
[30] = RPMI 5 mM glucose + 10% dialyzed FBS, 1.71 µM
[31] = RPMI 5 mM glucose + 10% dialyzed FBS, 5.12 µM
[32] = RPMI 5 mM glucose + 10% dialyzed FBS, 15.4 µM
[33] = RPMI 5 mM glucose + 10% dialyzed FBS, 46.1 µM

SMILES	cell viability [1] [%]	cell viability [2] [%]	cell viability [3] [%]	cell viability [4] [%]	cell viability [5] [%]	cell viability [6] [%]	cell viability [7] [%]	cell viability [8] [%]	cell viability [9] [%]	cell viability [10] [%]	cell viability [11] [%]	cell viability [12] [%]	cell viability [13] [%]	cell viability [14] [%]	cell viability [15] [%]	cell viability [16] [%]	cell viability [17] [%]	cell viability [18] [%]	cell viability [19] [%]	cell viability [20] [%]	cell viability [21] [%]	cell viability [22] [%]	cell viability [23] [%]	cell viability [24] [%]	cell viability [25] [%]	cell viability [26] [%]	cell viability [27] [%]	cell viability [28] [%]	cell viability [29] [%]	cell viability [30] [%]	cell viability [31] [%]	cell viability [32] [%]	cell viability [33] [%]
C[C@H]1[C@@H](CC(C[C@H]2O[C@@H]3O[C@]4(C)CC[C@H]5[C@H](C)CC[C@@H]([C@H]2C)[C@@]35OO4)C[S+](=O)([O-])c2ccc(COC(=O)N(C)C)cc2)O[C@@H]2O[C@]3(C)CC[C@H]4[C@H](C)CC[C@@H]1[C@@]24OO3	114	111	103	117	110	102	85.5	55.5	49.7	39	13.8	114	122	113	122	113	116	81.7	52	53.2	33.5	21.8	118	110	107	110	103	106	50.7	41.7	36.9	39.7	35
Cc1nc2c([nH]1)-c1ccccc1N(C(=O)c1ccc(NC(=O)c3ccccc3-c3ccccc3)cc1)CC2	114	120	122	117	127	126	124	128	121	128	128																						
COC1=CC=C2C(=CC=NC2=C1)OC3=CC=C(NC(=O)\C4=C(C)\N(CC(C)(C)O)N(C4=O)C5=CC=CC=C5)C=C3F	121	123	122	123	123	132	135	132	129	122	118																						
CCC(CC)[C@H](NC(C)=O)[C@@H]1[C@H](O)[C@@H](C(=O)O)C[C@H]1NC(=N)N	84.6	86.3	86.2	95.4	102	84.1	95.6	89	100	91.4	101	85.2	79.7	81.5	86	84.2	75.9	84.8	85.1	87.4	78.1	86.9	75.7	82.1	81.7	86.4	83	80.5	77.4	81.8	76.5	82.6	86.8
CC(=O)SCC(Cc1ccccc1)C(=O)NCC(=O)OCc1ccccc1 (configuration not stated)	93.4	92.2	103	104	103	102	105	103	101	66.9	8.75	105	93.6	106	102	99.9	98.2	101	100	98.6	54	59.3	85.3	91.2	96.2	94.3	104	95.5	101	103	90.1	34.7	50.3
CCOP(=O)(OCC)C(C)NC(=O)N(CCCl)N=O (configuration not stated)	122	116	132	119	124	130	123	123	128	130	141																						
